Where “and” joins values, the source holds several entries; their conditions need not be identical. Equal entries are not always repeated. Where two headings read alike, the source gives them in different places.
Key:
[1] = tested on: BCC (basal cell carcinoma); assay: Cell viability analysis (WST-1), skin cancer cell line BCC; format: cell-based
Protocol: (§1) The cell numbers were counted and reseed as 2×10^6 in cell culture plate/flask. Then, the culture medium was added to a volume of 10 ml, and the cells were cultured for 2-3 days. Then, the cells were suspended for loading into 96-well plates. The cell number was 3000/well and the volume of the culture medium was 100 μl each well.
(§2) Removing the original culture medium from 96-well plate. Then add 100 μl of commercially drug at a concentration of 10 μM per well. After 72 hours, add the diluted WST-1 reagent to the well with 100 μl/well, and the diluted WST-1 reagent was acquired from the dilution of 9:1 medium and WST-1 stock reagent. Finally, the total volume of each well was 200 μl/well. Culture the 96-well plate at 37° C. for 30 to 90 minutes. Detecting and calculate the survival rate of each cancer cells with an ELISA reader at OD450 nm.

[2] = tested on: T24 (bladder cancer cell line); assay: Cell viability analysis (WST-1), bladder cancer cell line T24; format: cell-based; conditions: T24, 10 μM
Protocol: as §1, §2

[3] = tested on: 786-O (Renal adenocarcinoma); assay: Cell viability analysis (WST-1), renal cancer cell line 786-O; format: cell-based; conditions: Homo sapiens
Protocol: as §1, §2

[4] = tested on: MCF7 (Mammary Gland, Adenocarcinoma); assay: Cell viability analysis (WST-1), breast cancer cell line MCF7; format: cell-based; conditions: Homo sapiens
Protocol: as §1, §2

[5] = tested on: TOV-21G (ovarian cancer cell line); assay: Cell viability analysis (WST-1), ovarian cancer cell line TOV-21G; format: cell-based; conditions: Homo sapiens, TOV21G
Protocol: as §1, §2

normal cells = assay: Toxicity to normal cells (overall statement); format: cell-based
[6] = Animal model test of gastric cancer: body weight and survival; format: in vivo, mice (BALB/cAnN.Cg-Foxn1nu/CrlNarl); conditions: for weight: individual mice A, B, C
Protocol: In this invention, the female mice were (BALB/cAnN.Cg-Foxn1^nu/CrlNarl) purchased from National Laboratory Animal Center (Taiwan)). The weight of the mice were 21±1 g. These mice were subcutaneously injected with gastric cancer cells (AGS) and then put these mice into different cages at random. The drug test experiment was divided into three groups, include “control group”, “low dose group (100 mg/kg/day)”, and “high dose group (200 mg/kg/day)”. These mice were then injected test drug intraperitoneally once daily […]. The tumor sizes and body weight were measured twice a week. The tumor sizes were measured and calculated by formula: (L×W^2)/2. L represents the tumor longest length. W represents the tumor shortest diameter.

[7] = Cell viability analysis (WST-1), normal pulmonary epithelial cell line BEAS-2B; format: cell-based; conditions: human, BEAS-2B normal pulmonary epithelial cells, BEAS-2B normal cells
Text: Subculture the different types of cancer cells. The cancer cells lines includes lung cancer, gastric cancer, hepatic cancer, colon cancer, skin cancer, cervical cancer, prostate cancer, bladder cancer, breast cancer, leukemia, pancreatic cancer, ovarian cancer, tongue cancer, osteosarcoma, and renal cancer. The normal cells used in the control group included kidney cell line (HEK293) and human bronchial epithelial cell line BEAS-2B.
as §1, §2

colorectal cancer cell = assay: Summary of the effect on colorectal cancer cell (HCT116-wt, LoVo); format: cell-based; conditions: Homo sapiens, colorectal cancer cell (mean of HCT116-wt and LoVo averages), 72 hours, read-out: Inhibitory effect
Protocol: as §2

[8] = tested on: AGS (Gastric Adenocarcinoma); assay: Cell viability analysis (WST-1), gastric cancer cell line AGS; format: cell-based
Protocol: as §1, §2

pancreatic cancer cell = assay: Summary of the effect on pancreatic cancer cell (AsPC-1, BxPC-3); format: cell-based; conditions: pancreatic cancer cell (mean of AsPC-1 and BxPC-3 averages), 72 hours, read-out: Inhibitory effect
Protocol: as §2

[9] = tested on: H1650 (lung adenocarcinoma); assay: Cell viability analysis (WST-1), lung cancer cell line H1650; format: cell-based; conditions: Homo sapiens
Protocol: as §1, §2

various cancer cells = assay: Inhibition test on all kinds of cancer cells (overall statement); format: cell-based; conditions: FIG. 1
Protocol: as §2

breast cancer cell = assay: Summary of the effect on breast cancer cell (MCF7, MDA-MB-231); format: cell-based; conditions: breast cancer cell (mean of MCF7 and MDA-MB-231 averages), 72 hours, read-out: Inhibitory effect
Protocol: as §2

[10] = 72 h, average of 4 tests, read-out: inhibition effect (survival rate of cells), average

Structure (SMILES): Oc1ccc(OCc2ccccc2)cc1 [Monobenzone]
- viability at 10 µM ([1]; 72 h, average of 4 tests, read-out: inhibition effect (survival rate of cells), Average): 50.1%
- viability at 10 µM ([1]; 72 hours, test 0602-30 min, read-out: inhibition effect (survival rate of cells)): 48.2%
- viability at 10 µM ([1]; 72 hours, test 0605-10 min, read-out: inhibition effect (survival rate of cells)): 59.8%
- viability at 10 µM ([1]; 72 hours, test 0607-10 min, read-out: inhibition effect (survival rate of cells)): 38.6%
- viability at 10 µM ([1]; 72 hours, test 0609-10 min, read-out: inhibition effect (survival rate of cells)): 53.8%
- viability at 10 µM [2, 10]: 87%
- viability at 10 µM ([2]; 72 hours, test T24-1-30 min, read-out: inhibition effect (survival rate of cells)): 93.5%
- viability at 10 µM ([2]; 72 hours, test T24-2-20 min, read-out: inhibition effect (survival rate of cells)): 70.4%
- viability at 10 µM ([2]; 72 hours, test T24-3-20 min, read-out: inhibition effect (survival rate of cells)): 89.4%
- viability at 10 µM ([2]; 72 hours, test T24-4-20 min, read-out: inhibition effect (survival rate of cells)): 94.7%
- viability at 10 µM ([3]; 786-0, 786-O, 72 hours, test 0524-10 min, read-out: inhibition effect (survival rate of cells)): 39.8%
- viability at 10 µM ([3]; 786-0, 786-O, 72 hours, test 0526-10 min, read-out: inhibition effect (survival rate of cells)): 32.4%
- viability at 10 µM ([3]; 786-0, 786-O, 72 hours, test 0529-10 min, read-out: inhibition effect (survival rate of cells)): 21.2%
- viability at 10 µM ([3]; 786-0, 786-O, 72 hours, test 0531-10 min, read-out: inhibition effect (survival rate of cells)): 23.4%
- viability at 10 µM ([3]; 786-0, 72 h, 786-O, average of 4 tests, read-out: inhibition effect (survival rate of cells), average): 29.2%
- viability at 10 µM ([3]; 786-0, 72 h, Kidney cancer cell (786-O average), read-out: Inhibitory effect): 29.2%
- viability at 10 µM ([4]; MCF7, 72 h, MCF7, 10 μM, average of 4 tests, read-out: inhibition effect (survival rate of cells), average): 95.7%
- viability at 10 µM ([4]; MCF7, MCF7, 10 μM, 72 hours, test 0612-10 min, read-out: inhibition effect (survival rate of cells)): 107%
- viability at 10 µM ([4]; MCF7, MCF7, 10 μM, 72 hours, test 0614-10 min, read-out: inhibition effect (survival rate of cells)): 88.8%
- viability at 10 µM ([4]; MCF7, MCF7, 10 μM, 72 hours, test 0616-10 min, read-out: inhibition effect (survival rate of cells)): 80.6%
- viability at 10 µM ([4]; MCF7, MCF7, 10 μM, 72 hours, test 0619-10 min, read-out: inhibition effect (survival rate of cells)): 106%
- viability at 10 µM [5, 10]: 78.4%
- viability at 10 µM ([5]; 72 hours, test 7-3-30 min, read-out: inhibition effect (survival rate of cells)): 93.9%
- viability at 10 µM ([5]; 72 hours, test 7-4-30 min, read-out: inhibition effect (survival rate of cells)): 78.4%
- viability at 10 µM ([5]; 72 hours, test 7-7-30 min, read-out: inhibition effect (survival rate of cells)): 69.6%
- viability at 10 µM ([5]; 72 hours, test −4-30 min, read-out: inhibition effect (survival rate of cells)): 71.6%
- toxicity to normal cells (in words) (normal cells): no toxicity or had little toxicity to normal cells
- health status / death of tested mice during the treatment (in words) ([6]; both high and low doses): healthy status during the treatment without death
- weight of mice during the experiment (in words) ([6]; both low dose and high dose, FIG. 2): did not show a significant decrease
- weight ([6]; high dose (200 mg/kg/day) i.p. once daily, Fifth measurement, 200 mg/kg/day): 20 g (2×) and 21 g
- weight ([6]; high dose (200 mg/kg/day) i.p. once daily, First measurement, 200 mg/kg/day): 20 g (2×) and 19.5 g
- weight ([6]; high dose (200 mg/kg/day) i.p. once daily, Fourth measurement, 200 mg/kg/day): 20 g (2×) and 21 g
- weight ([6]; high dose (200 mg/kg/day) i.p. once daily, Second measurement, 200 mg/kg/day): 19 g (2×) and 20 g
- weight ([6]; high dose (200 mg/kg/day) i.p. once daily, Third measurement, 200 mg/kg/day): 20.5 g and 19 g and 20 g
- weight ([6]; low dose (100 mg/kg/day) i.p. once daily, Fifth measurement, 100 mg/kg/day): 20 g (2×) and 21 g
- weight ([6]; low dose (100 mg/kg/day) i.p. once daily, First measurement): 21 g
- weight ([6]; low dose (100 mg/kg/day) i.p. once daily, Fourth measurement, 100 mg/kg/day): 20 g (2×) and 21 g
- weight ([6]; low dose (100 mg/kg/day) i.p. once daily, Second measurement, 100 mg/kg/day): 20 g (2×) and 19 g
- weight ([6]; low dose (100 mg/kg/day) i.p. once daily, Third measurement, 100 mg/kg/day): 19.5 g and 19 g and 18.5 g
- viability at 72 h, 10 µM ([7]; average of 4 tests, read-out: inhibition effect (survival rate of cells), average): 73.8%
- viability at 72 h, 10 µM ([7]; test 0510-10 min, read-out: inhibition effect (survival rate of cells)): 84.7%
- viability at 72 h, 10 µM ([7]; test 0512-10 min, read-out: inhibition effect (survival rate of cells)): 79.5%
- viability at 72 h, 10 µM ([7]; test 0515-10 min, read-out: inhibition effect (survival rate of cells)): 74.9%
- viability at 72 h, 10 µM ([7]; test 0517-10 min, read-out: inhibition effect (survival rate of cells)): 56.2%
- viability at 10 µM (colorectal cancer cell): 89%
- viability at 10 µM [8, 10]: 68.4%
- viability at 10 µM ([8]; 72 hours, test 0510-10 min, read-out: inhibition effect (survival rate of cells)): 85.2%
- viability at 10 µM ([8]; 72 hours, test 0512-10 min, read-out: inhibition effect (survival rate of cells)): 51.3%
- viability at 10 µM ([8]; 72 hours, test 0515-10 min, read-out: inhibition effect (survival rate of cells)): 62.2%
- viability at 10 µM ([8]; 72 hours, test 0517-10 min, read-out: inhibition effect (survival rate of cells)): 74.9%
- viability at 10 µM (pancreatic cancer cell): 86.8%
- viability at 10 µM ([9]; NCI-H1650, 72 h, H1650, 10 μM, average of 4 tests, read-out: inhibition effect (survival rate of cells), Average): 86.3%
- viability at 10 µM ([9]; NCI-H1650, H1650, 10 μM, 72 hours, test 1-10 min, read-out: inhibition effect (survival rate of cells)): 90.1%
- viability at 10 µM ([9]; NCI-H1650, H1650, 10 μM, 72 hours, test 2-20 min, read-out: inhibition effect (survival rate of cells)): 66.6%
- viability at 10 µM ([9]; NCI-H1650, H1650, 10 μM, 72 hours, test 3-20 min, read-out: inhibition effect (survival rate of cells)): 86.7%
- viability at 10 µM ([9]; NCI-H1650, H1650, 10 μM, 72 hours, test 4-20 min, read-out: inhibition effect (survival rate of cells)): 102%
- inhibitory effect and specificity on various cancer cells (in words) (various cancer cells): significant inhibitory effect and specificity on various cancer cells
- viability at 10 µM (breast cancer cell): 87.9%
